Data from patent publication US20100022509A1, “Inhibitors of MshC and Homologs Thereof, and Methods of Identifying Same” (priority 2006, published 2010).

How the values were obtained:
Type in all cases: biochemical, M. tuberculosis
[1] = target: T1, MshC (Mycobacterium tuberculosis, UniProt P9WJM9); experiment: Metal chelation by phenanthrolines; settings: 0.1-5 mM phenanthroline
T1 sequence (P9WJM9 1-414): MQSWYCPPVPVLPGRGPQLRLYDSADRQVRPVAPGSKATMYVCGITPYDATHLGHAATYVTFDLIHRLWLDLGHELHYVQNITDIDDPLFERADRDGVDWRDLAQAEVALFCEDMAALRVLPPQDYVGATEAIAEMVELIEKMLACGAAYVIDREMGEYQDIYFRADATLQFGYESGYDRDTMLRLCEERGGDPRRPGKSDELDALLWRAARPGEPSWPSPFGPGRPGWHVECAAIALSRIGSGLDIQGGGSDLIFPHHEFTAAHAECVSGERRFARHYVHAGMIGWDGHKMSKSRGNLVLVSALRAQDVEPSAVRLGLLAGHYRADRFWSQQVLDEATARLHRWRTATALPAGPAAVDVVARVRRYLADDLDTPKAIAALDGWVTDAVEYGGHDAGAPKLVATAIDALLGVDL

[2] = target: T1, MshC
[3] = target: T1, MshC; experiment: Inhibition studies of MshC ligase activity (HEPES pH 7.5, HPLC); settings: for inhibition of the ligase activity, in words: 80-1600 μM, 70 μM L-Cys and 50 μM GlcN-Ins; for % inhibition: 50 μM GlcN-Ins and 70 μM Cys
[4] = target: T1, MshC; experiment: Zn supplementation; settings: 2, 10, 50 or 100 μM zinc chloride
[5] = target: T1, MshC; experiment: biochemical; settings: using the HPLC assay
[6] = target: T1, MshC; experiment: Coupled enzyme spectrophotometric screening assay (MshC plus pyrophosphatase, malachite green); settings: 1.6 mM cysteamine, 1 μg MshC

| SMILES | relative spec. act. [2] | inhibition of the ligase activity, in words [3] | % inhibition ([3]; [inhibitor] 1600 μM) | other results |
| --- | --- | --- | --- | --- |
| c1cnc2c(c1)ccc1cccnc12 [1,10-phenanthroline] | – | – | – | effect on enzyme activity, in words [1]: no significant loss of activity |
| N[C@@H](CO)C(=O)O [L-serine] | ≦0.008 | very minor inhibition | – | activity as alternative substrate to Cys, in words ([2]; 80 μM to 1.6 mM): Nor was significant activity detected; % inhibition ([3]; [inhibitor] 5000 μM): 15 ± 8% |
| [Cl-].[Cl-].[Zn+2] [Zn^2+, zinc chloride] | – | – | – | effect on enzyme activity, in words [4]: loss in activity |
| NCCS [cysteamine] | ≦0.16 | – | 65 ± 10% | inhibition of the reaction catalyzed by MshC, in words [5]: weak inhibitor; rate of phosphate production in the coupled enzyme assay [6]: markedly depressed; reduction in rate ([3]; 1.6 mM): 3 fold |
| O=C(O)CCS [β-mercaptopropionate, β-mercaptopropionic acid] | ≦0.004 | minor inhibition | −20 ± 20% | – |
